# The source made the active and inactive calls. The calls are words filed in the database; no cut-off is given here.
# What was measured:
# K562 [1] = experiment: Induction of cell cycle arrest in human K562 cells assessed as accumulation at G2/M phase at 2XIC50 measured after 48 hrs by propidium iodide/RNase staining based flow cytometry; assay type: functional
# HL-60 = experiment: Antiproliferative activity against human HL-60 cells assessed as inhibition of cell proliferation measured after 72 hrs by MTT assay; assay type: functional, cell-based; settings: HL-60, 72 h
# TERT-RPE1 = experiment: Cytotoxicity against human TERT-RPE1 cells assessed as inhibition of cell proliferation measured after 72 hrs by MTT assay; assay type: cell-based; settings: RPE-1, 72 h
# Calf thymus DNA [2] = experiment: Binding affinity to calf thymus DNA assessed as DNA intercalation by measuring decrease of negative DNA band at 245 nm at 50 uM by circular dichroism spectral analysis; assay type: tissue-based; settings: Bos taurus
# P388 [3] = experiment: Antitumour activity against mouse P388 cells xenografted subcutaneously in BDF1 mouse assessed as inhibition of tumour growth at 60 mg/kg, ip administered qd for 5 days starting from day 1 of tumor cell inoculation and measured at day 18 post-tumor cell inoculation; assay type: functional; settings: P388, 432 h, time 18 day, read-out: TGI
# [4] = Resistance index, ratio of IC50 for human P-gp-positive/Doxorubicin-resistant K562/4 cells to IC50 for human K562 cells; assay type: functional
# K562 [5] = experiment: Induction of apoptosis in human K562 cells assessed as necrotic cells at 1.6 uM measured after 48 hrs by Annexin V-APC/PI staining based flow cytometry assay (reference value: 3.9%); assay type: functional
# K562 [6] = experiment: Induction of apoptosis in human K562 cells assessed as early apoptotic cells at 1.6 uM measured after 24 hrs by Annexin V-APC/PI staining based flow cytometry assay (reference value: 3.4%); assay type: functional
# [7] = Toxicity in BDF1 mouse xenografted with mouse P388 cells assessed as lethality at 60 mg/kg, ip administered qd for 5 days; assay type: organism-based; settings: in vivo, 120 h, dose 60 mg/kg/day, time 5 day
# [8] = Selectivity index, ratio of IC50 for human TERT-RPE1 cells to IC50 for human NCI-H460 cells; assay type: toxicity; settings: TERT-RPE1 cells and NCI-H460 cells, read-out: Ratio IC50
# P388 [9] = experiment: Antitumour activity against mouse P388 cells xenografted intraperitoneally in BDF1 mouse assessed as mean life span time at 20 mg/kg, ip administered qd for 5 days (reference value: 11.5 +/-0.9 days); assay type: functional; settings: dose 20 mg/kg/day; time 5 day
# HCT-116 [10] = experiment: Antiproliferative activity against human HCT-116 cells with inactivated p53 gene assessed as inhibition of cell proliferation measured after 72 hrs by MTT assay; assay type: functional, cell-based; settings: HCT-116, 72 h
# Calf thymus DNA [11] = experiment: Binding affinity to calf thymus double stranded DNA at 10 uM measured after 5 mins by flourescence spectroscopy method; settings: Bos taurus
# K562 [12] = experiment: Antiproliferative activity against human K562 cells assessed as inhibition of cell proliferation measured after 72 hrs by MTT assay; assay type: functional, cell-based; settings: K562, 72 h
# P388 [13] = experiment: Antitumour activity against mouse P388 cells xenografted subcutaneously in BDF1 mouse assessed as inhibition of tumour growth at 20 to 60 mg/kg, ip administered qd for 5 days starting from day 1 of tumor cell inoculation and measured at day 14 to 18 post-tumor cell inoculation; assay type: functional, organism-based; settings: dose 20-60 mg/kg, time 14-18 day, TDE = time-dependent effect
# HCT-116 [14] = experiment: Antiproliferative activity against human HCT-116 cells assessed as inhibition of cell proliferation measured after 72 hrs by MTT assay; assay type: functional, cell-based; settings: HCT-116, 72 h
# K562 [15] = experiment: Induction of cell cycle arrest in human K562 cells assessed as accumulation at G2/M phase at 2XIC50 measured after 24 hrs by propidium iodide/RNase staining based flow cytometry; assay type: functional
# Calf thymus DNA [16] = experiment: Binding affinity to calf thymus DNA assessed as stoichiometry ratio of compound-DNA complex formation by scatchard plot analysis; settings: Bos taurus
# K562 [17] = experiment: Induction of cell cycle arrest in human K562 cells assessed as accumulation at subG1 phase at 2XIC50 measured after 24 hrs by propidium iodide/RNase staining based flow cytometry; assay type: functional
# [18] = target: T1, DNA topoisomerase 1 (Homo sapiens) (UniProt P11387); experiment: Inhibition of human topoisomerase 1-mediated relaxation of supercoiled plasmid using pBR322 plasmid as substrate at 40 uM measured after 30 mins by ethidium bromide dye based agarose gel electrophoresis method
# T1 sequence (whole entry): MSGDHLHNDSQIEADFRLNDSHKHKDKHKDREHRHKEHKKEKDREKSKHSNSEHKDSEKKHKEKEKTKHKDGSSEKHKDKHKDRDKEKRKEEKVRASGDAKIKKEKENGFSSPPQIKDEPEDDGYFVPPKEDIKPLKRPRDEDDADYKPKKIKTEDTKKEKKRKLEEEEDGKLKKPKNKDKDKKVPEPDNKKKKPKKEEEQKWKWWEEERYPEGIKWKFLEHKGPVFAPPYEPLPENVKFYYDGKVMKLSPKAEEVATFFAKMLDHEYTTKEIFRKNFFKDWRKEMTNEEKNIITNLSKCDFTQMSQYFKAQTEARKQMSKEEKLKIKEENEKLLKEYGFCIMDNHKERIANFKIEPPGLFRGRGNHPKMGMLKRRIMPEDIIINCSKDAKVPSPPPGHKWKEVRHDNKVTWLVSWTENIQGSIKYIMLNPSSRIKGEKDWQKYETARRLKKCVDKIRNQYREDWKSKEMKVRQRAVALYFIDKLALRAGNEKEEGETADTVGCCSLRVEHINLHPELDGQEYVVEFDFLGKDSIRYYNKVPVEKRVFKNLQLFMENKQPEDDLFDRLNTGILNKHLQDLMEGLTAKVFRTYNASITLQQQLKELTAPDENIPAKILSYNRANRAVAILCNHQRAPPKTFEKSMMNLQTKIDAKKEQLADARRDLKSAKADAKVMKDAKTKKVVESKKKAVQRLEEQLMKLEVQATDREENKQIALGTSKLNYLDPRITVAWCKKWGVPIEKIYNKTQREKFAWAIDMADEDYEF
# P388 [19] = experiment: Antitumour activity against mouse P388 cells xenografted subcutaneously in BDF1 mouse assessed as inhibition of tumour growth at 20 mg/kg, ip administered qd for 5 days starting from day 1 of tumor cell inoculation and measured at day 18 post-tumor cell inoculation; assay type: functional; settings: P388, 432 h, time 18 day, read-out: TGI
# P388 [20] = experiment: Antitumour activity against mouse P388 cells xenografted subcutaneously in ip dosed BDF1 mouse assessed as inhibition of tumour growth administered qd for 5 days starting from day 1 of tumor cell inoculation and measured at day 14 to 18 post-tumor cell inoculation; assay type: functional, organism-based; settings: dose 20-60 mg/kg, time 14-18 day
# [21] = Selectivity index, ratio of IC50 for human TERT-RPE1 cells to IC50 for human K562 cells; assay type: toxicity; settings: TERT-RPE1 cells and K562 cells, read-out: Ratio IC50
# K562 [22] = experiment: Induction of oxidative stress in human K562 cells assessed as increase in intracellular ROS generation at 1.6 uM measured after 40 mins by Deep Red dye based flow cytometry method; assay type: functional, cell-based
# K562 [23] = experiment: Induction of apoptosis in human K562 cells assessed as early apoptotic cells at 1.6 uM measured after 48 hrs by Annexin V-APC/PI staining based flow cytometry assay (reference value: 3.4%); assay type: functional
# NCI-H460 = experiment: Antiproliferative activity against human NCI-H460 cells assessed as inhibition of cell proliferation measured after 72 hrs by MTT assay; assay type: functional, cell-based; settings: NCI-H460, 72 h
smiles,measurement,setting,value
Cc1[nH]c2c(O)c3c(c(O)c2c1C(=O)N1CC[C@H](N)C1)C(=O)c1ccccc1C3=O,Activity,K562 [1],Active
same,IC50,HL-60,900 nM
same,IC50,TERT-RPE1,15.8 µM
same,Activity,Calf thymus DNA [2],Active
same,inhibition in vivo at 60 mg/kg,P388 [3],79%
same,Ratio IC50,[4],26.5
same,Activity,K562 [5],34.8%
same,Activity,K562 [6],1.3%
same,Activity,[7],Non-Toxic
same,selectivity ratio,[8],18
same,Time,P388 [9],17.6 days
same,IC50,HCT-116 [10],800 nM
same,Activity,Calf thymus DNA [11],Active
same,IC50,K562 [12],800 nM
same,Activity,P388 [13],Tde
same,IC50,HCT-116 [14],900 nM
same,Activity,K562 [15],Active
same,Ratio,Calf thymus DNA [16],4.6
same,Activity,K562 [17],Active
same,inhibition,[18],Active
same,inhibition in vivo at 20 mg/kg,P388 [19],65%
same,Activity,P388 [20],Dose-dependent effect
same,selectivity ratio,[21],18
same,Activity,K562 [22],inactive
same,Activity,K562 [23],0.9%
same,IC50,NCI-H460,900 nM
